The source of these data is ChEMBL document CHEMBL5244211, “Current anti-diabetic agents and their molecular targets: A review” (Eur J Med Chem, 2018).

The target of test [1] is T1, Free fatty acid receptor 4 (Homo sapiens, UniProt Q5NUL3).
T1 sequence (Q5NUL3 whole entry): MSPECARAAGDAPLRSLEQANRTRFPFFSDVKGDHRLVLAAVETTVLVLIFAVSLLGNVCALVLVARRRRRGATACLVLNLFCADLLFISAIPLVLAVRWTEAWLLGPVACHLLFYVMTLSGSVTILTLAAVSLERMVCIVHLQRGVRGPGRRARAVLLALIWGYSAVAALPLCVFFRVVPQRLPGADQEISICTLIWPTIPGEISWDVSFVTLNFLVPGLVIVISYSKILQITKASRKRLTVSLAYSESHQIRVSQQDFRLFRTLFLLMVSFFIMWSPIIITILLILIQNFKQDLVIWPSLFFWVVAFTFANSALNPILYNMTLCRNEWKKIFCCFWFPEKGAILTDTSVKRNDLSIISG
The experiment in a line: Agonist activity at human GPR120 expressed in CHO cells assessed as intracellular phosphorylated ERK incubated for 16 to 18 hrs by AlphaScreen SureFire assay. The class given is cell-based.

The target in test [2] is T2, Free fatty acid receptor 4 (Mus musculus) (UniProt Q7TMA4).
T2 sequence (whole entry): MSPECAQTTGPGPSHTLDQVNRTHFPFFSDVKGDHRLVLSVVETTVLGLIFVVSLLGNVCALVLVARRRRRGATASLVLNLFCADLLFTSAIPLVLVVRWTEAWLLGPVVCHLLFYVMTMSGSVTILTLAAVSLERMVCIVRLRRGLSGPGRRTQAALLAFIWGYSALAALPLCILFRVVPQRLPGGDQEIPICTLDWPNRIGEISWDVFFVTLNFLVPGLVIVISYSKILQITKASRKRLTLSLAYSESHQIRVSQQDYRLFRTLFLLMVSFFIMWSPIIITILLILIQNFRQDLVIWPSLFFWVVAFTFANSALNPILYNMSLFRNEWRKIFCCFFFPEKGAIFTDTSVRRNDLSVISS
The experiment in a line: In vivo agonist activity at GPR120 in C57BL/6 mouse assessed as reduction in glucose AUC levels at 30 mg/kg,po and measured upto 120 mins by OGTT test. It counts as functional, organism-based. Set-up: scale not given: the % may be the effect or the level left.

In test [3] the target is T3, Tyrosine-protein phosphatase non-receptor type 2 (Homo sapiens, UniProt P17706).
T3 sequence (P17706 whole entry): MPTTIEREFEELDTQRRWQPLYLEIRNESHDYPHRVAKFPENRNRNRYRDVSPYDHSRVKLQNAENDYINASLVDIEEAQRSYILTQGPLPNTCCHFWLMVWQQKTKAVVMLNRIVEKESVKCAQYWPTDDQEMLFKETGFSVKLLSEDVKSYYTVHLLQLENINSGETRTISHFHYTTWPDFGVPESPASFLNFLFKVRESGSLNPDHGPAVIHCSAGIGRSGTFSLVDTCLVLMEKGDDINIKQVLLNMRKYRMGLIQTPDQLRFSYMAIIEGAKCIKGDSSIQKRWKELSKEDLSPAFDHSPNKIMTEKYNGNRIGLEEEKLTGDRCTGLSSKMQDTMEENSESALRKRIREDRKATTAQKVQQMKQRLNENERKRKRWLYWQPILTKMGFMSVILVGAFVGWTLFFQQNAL
In words: Inhibition of TC-PTP (unknown origin).

Test [4] addresses T4, Tyrosine-protein phosphatase non-receptor type 1 (Homo sapiens, UniProt P18031).
T4 sequence (P18031 whole entry): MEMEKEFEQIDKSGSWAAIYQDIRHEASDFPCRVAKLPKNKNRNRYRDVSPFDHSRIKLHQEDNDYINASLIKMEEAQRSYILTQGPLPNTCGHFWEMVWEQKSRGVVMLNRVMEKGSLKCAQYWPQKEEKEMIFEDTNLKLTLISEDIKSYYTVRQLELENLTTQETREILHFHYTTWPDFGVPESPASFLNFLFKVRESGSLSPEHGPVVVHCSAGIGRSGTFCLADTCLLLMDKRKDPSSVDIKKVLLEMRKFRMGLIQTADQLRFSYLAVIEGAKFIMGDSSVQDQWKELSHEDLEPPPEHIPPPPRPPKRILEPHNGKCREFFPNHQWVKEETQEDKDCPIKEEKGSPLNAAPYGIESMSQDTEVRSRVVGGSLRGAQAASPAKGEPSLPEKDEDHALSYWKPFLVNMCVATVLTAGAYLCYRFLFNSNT
In words: Inhibition of PTP1B (unknown origin).

The species named for another test is Homo sapiens. The experiment in a line: Selectivity ratio of IC50 for inhibition of TC-PTP (unknown origin) to IC50 for inhibition of PTP1B (unknown origin).
The nature of test [5]: Inhibition of calf lens ALR2 using glyceraldehyde as substrate incubated for 5 mins in presence of NADPH by UV-spectrophotometric analysis. It counts as tissue-based, Bos taurus.
Test [6] deals with T5, Glucose-dependent insulinotropic receptor (Homo sapiens, UniProt Q8TDV5).
T5 sequence (Q8TDV5 whole entry): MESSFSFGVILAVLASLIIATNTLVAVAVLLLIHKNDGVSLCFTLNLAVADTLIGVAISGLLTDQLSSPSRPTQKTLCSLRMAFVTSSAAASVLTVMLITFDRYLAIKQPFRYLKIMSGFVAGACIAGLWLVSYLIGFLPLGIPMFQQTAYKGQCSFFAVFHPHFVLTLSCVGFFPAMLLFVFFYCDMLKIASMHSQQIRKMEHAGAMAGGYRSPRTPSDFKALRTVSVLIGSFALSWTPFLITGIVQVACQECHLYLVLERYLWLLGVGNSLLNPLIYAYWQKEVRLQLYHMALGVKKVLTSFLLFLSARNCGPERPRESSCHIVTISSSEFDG
In words: Agonist activity at human GPR119 expressed in HEK293S cells assessed as increase in intracellular cAMP level incubated for 45 mins by HTRF analysis. The class given is cell-based.

A further test deals with Dipeptidyl peptidase 4 (Homo sapiens, UniProt P27487). In words: Inhibition of DPP4 (unknown origin).
Test [7] deals with T6, Fructose-1,6-bisphosphatase 1 (Homo sapiens, UniProt P09467).
T6 sequence (P09467 whole entry): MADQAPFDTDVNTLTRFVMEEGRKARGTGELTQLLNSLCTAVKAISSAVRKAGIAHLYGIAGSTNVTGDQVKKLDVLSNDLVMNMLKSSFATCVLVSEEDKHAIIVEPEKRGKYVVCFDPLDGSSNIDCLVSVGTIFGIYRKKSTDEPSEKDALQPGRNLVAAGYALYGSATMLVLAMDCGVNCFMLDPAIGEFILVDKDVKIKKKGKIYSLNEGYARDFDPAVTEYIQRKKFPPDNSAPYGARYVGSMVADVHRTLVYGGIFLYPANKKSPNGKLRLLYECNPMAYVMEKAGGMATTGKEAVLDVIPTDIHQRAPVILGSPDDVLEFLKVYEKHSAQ
The experiment in a line: Inhibition of FBPase (unknown origin).

The next test deals with Glucagon receptor (Rattus norvegicus, UniProt P30082). The experiment in a line: Displacement of [125I]-glucagon from GCGR in Sprague-Dawley rat liver assessed as decrease in glucagon-stimulated CAMP production incubated for 45 mins by scintillation counter analysis. The class given is tissue-based.
A short description of test [8]: Inhibition of bovine kidney ALR1 in presence of NADPH by UV spectrophotometric analysis. The class given is tissue-based, Bos taurus.
The target in test [9] is T7, Fructose-1,6-bisphosphatase 1 (Rattus norvegicus, UniProt P19112).
T7 sequence (P19112 whole entry): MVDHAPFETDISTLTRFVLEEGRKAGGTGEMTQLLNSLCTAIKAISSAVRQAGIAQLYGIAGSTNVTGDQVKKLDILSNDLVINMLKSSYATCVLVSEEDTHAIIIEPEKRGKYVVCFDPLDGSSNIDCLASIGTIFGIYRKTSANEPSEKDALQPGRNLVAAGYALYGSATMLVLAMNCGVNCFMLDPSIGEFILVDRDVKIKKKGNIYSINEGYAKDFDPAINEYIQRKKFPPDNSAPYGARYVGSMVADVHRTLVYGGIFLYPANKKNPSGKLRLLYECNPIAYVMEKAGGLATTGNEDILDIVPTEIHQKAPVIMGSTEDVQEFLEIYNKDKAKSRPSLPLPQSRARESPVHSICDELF
In words: Inhibition of FBPase in rat Primary hepatocyte assessed as reduction in glucose production. The class given is cell-based.

Test [10] concerns the target T8, Fructose-1,6-bisphosphatase 1 (Rattus norvegicus) (UniProt P19112).
T8 sequence (whole entry): T7 sequence (P19112 whole entry)
The experiment in a line: Inhibition of FBPase in rat Primary hepatocyte assessed as reduction in glucose production at 160 uM. It counts as cell-based.

For test [11], the target named is T4, Tyrosine-protein phosphatase non-receptor type 1. The experiment in a line: Competitive inhibition of PTP1B (unknown origin) assessed as inhibition constant using pNPP as substrate by Michaelis-Menten based analysis.
Test [12] shares this target. In words: Inhibition of PTP1B (unknown origin) using pNPP as substrate for 2 mins by spectroscopic analysis.

Each structure is given as a SMILES string.

Sequence of Glucagon receptor (P30082 whole entry): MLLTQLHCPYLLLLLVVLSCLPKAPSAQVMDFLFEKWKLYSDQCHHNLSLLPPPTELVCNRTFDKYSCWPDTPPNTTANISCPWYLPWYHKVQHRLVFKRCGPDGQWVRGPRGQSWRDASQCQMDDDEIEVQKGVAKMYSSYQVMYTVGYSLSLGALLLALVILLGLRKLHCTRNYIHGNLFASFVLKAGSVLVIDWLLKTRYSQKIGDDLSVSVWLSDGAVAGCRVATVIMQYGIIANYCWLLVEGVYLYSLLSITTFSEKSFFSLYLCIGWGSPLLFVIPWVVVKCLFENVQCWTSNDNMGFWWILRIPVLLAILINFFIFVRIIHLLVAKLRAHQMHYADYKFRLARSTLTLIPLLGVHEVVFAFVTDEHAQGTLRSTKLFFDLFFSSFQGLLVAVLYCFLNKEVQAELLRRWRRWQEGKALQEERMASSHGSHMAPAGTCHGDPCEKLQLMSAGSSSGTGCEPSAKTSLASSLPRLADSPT
Sequence of Dipeptidyl peptidase 4 (P27487 whole entry): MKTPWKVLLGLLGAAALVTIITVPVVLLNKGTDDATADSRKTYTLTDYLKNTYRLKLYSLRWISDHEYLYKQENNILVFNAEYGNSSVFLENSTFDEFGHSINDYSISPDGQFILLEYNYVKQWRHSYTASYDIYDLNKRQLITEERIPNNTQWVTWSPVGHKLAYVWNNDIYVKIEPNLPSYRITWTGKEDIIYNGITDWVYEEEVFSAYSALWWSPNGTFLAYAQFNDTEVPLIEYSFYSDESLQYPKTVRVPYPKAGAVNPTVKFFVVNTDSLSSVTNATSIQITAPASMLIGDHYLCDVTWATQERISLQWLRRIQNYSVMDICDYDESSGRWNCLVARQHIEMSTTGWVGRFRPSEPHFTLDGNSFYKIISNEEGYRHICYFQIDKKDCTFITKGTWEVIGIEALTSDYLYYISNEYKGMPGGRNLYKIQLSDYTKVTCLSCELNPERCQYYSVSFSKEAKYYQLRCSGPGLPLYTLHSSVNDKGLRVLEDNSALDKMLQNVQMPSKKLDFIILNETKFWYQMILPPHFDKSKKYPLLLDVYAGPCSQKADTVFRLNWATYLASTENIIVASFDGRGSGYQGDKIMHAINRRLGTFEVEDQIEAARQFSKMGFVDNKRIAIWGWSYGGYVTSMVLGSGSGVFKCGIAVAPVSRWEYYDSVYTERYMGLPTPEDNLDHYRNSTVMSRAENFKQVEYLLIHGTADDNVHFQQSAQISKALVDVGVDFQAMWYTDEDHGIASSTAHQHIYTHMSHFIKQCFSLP

With `O=C(O)[C@H]1C[C@@H]1CCC12CCC(c3cccc(Oc4ccccc4)c3)(CC1)O2`, the EC50 in [1] amounted to 220 nM. Moreover, in test [2], the Activity stood at 60%.
Regarding `COc1cc(/C=C2\SC(=S)N(Cc3ccc(C(=O)O)cc3)C2=O)ccc1OCc1ccccc1`, the IC50 in test [3] amounted to 3.5 µM; in test [4], 1100 nM. Moreover, in the test listed under Homo sapiens, the Ratio IC50 worked out at 2.
Take `Cc1ccc(-c2nn(-c3ccccc3)cc2/C=C2\SC(=S)N(c3cccc(Br)c3)C2=O)cc1`: the concentration for half-maximal inhibition (IC50) in [5] worked out at 1220 nM.
Same read-out and setting: the result for `Cc1ccc(N2C(=O)/C(=C/c3cn(-c4ccccc4)nc3-c3ccc([N+](=O)[O-])cc3)SC2=S)cc1` reads 2340 nM.
Regarding `CSc1ccc(COc2ccc(-c3ncc(C)c(N4CCN(c5ncc(OCC=C(C)C)cn5)CC4)n3)cc2)cc1`, in test [6], the EC50 amounted to 24 nM.
For the compound `CC#CCn1c(N2CCC[C@@H](N)C2)nc2c(C)c(=O)n(Cc3nc(C)c4c(F)cccc4n3)c(=O)n21`, on Dipeptidyl peptidase 4, it took 0.5 nM to reach half-maximal inhibition (IC50).
`Cc1cc(OCc2ccc(C(=O)O)cc2)ccc1/C=C1\SC(=S)N(Cc2ccc(C(=O)O)cc2)C1=O` registered an IC50 in test [4] of 240 nM.
In [7], `Cc1ccc(-c2nnc(-c3cccc(NC(=O)CCCCCCO)c3)o2)cc1` showed an IC50 of 1320 nM.
In the case of `CCCc1c(C(C)C)cc(C(C)C)c([C@@H](C)O)c1-c1ccc(F)cc1`, the IC50 on Glucagon receptor is 110 nM.
For the compound `CCCC(CCC)C(=O)O` [VALPROIC ACID], the IC50 in [8] is 57.4 µM.
`Cc1ccc(-c2nnc(-c3cccc(NC(=O)CCCCc4nnn[nH]4)c3)o2)cc1`: the IC50 in [9] is 167 µM. Besides, the inhibition in test [10] came to 42%.
Turning to `C[C@H](CCC(=O)O)[C@H]1CCC2C3CC=C4C(C)(C)c5c(cnn5-c5ccc(F)cc5)C[C@]4(C)C3CC[C@@]21C` (some centres undefined), in test [11], the Ki came out at 260 nM. This compound also yielded an IC50 in [12] of 420 nM. For the same compound, the Ratio IC50 in the test listed under Homo sapiens amounted to 11.
Turning to `O=C1NC(=O)[C@@]2(CCOc3ccc(F)cc32)N1` [SORBINIL], the IC50 in test [5] turned out to be 3.1 nM.
